Source: patent US20130052143A1, “LIQUID PREPARATION FOR ORAL ADMINISTRATION TO BE USED IN CT COLONOGRAPHY, AND COMPOSITION FOR DIGESTIVE TRACT IMAGING” (Ajinomoto Co., Inc., priority 2010, published 2013)

Settings: in vivo
Excerpt: In the insufflation to inflate the intestinal tract, a carbon dioxide gas (CO2) was supplied by using a hand operated double balloon pump through the transanal route. […] No anticonvulsive agent was used.
The procedure of the imaging was such that: firstly, the posture of the examinee was set to the left lateral decubitus position; a tube for insufflation was inserted; and a gas was supplied to confirm that smooth insufflation was possible. Next, the posture of the examinee was set to the abdominal position; the insufflation was conducted until the examinee had claimed a strong feeling of fullness or the pressure inside the intestinal tract had reached 25 mmHg; scanography was performed to confirm that the large intestine had been sufficiently inflated; and thereafter the CT image was taken. After taking the image of the abdominal position, the posture of the examinee was set to the dorsal position, and scanography was again performed to take the CT image in the dorsal position. At this time, if the inflation of the large intestine had been insufficient, additional insufflation was conducted. After the completion of the CT image taking, colon endoscopy was conducted to see the circumstances of the residual feces and residual liquid in the large intestine by eye. The CT image was taken under the charge of a clinical X-ray technician.

O=C=O [CO2, carbon dioxide gas]
examinees who felt abdominal pains: 50.0%
